{"source": "patent US7988985B2", "about": "“Pest repellent compositions and methods” (priority 2008, dated 2011)", "origin": "cited, not measured here", "key": {"[1]": {"tested_on": "blackflies (Simulium spp.)", "settings": "High-strength formulations containing up to 100% DEET"}, "[2]": {"tested_on": "mosquitoes (e.g., Anopheles, Culex pipiens, and Aeges aegypti)", "settings": "High-strength formulations containing up to 100% DEET, 95%+ effective"}, "biting-insect": {"tested_on": "biting-insect", "settings": "Low-strength formulations containing 12.5% DEET"}}}
{"smiles": "CCN(CC)C(=O)c1cccc(C)c1", "note": "[DEET, N,N,-diethyl-m-toluamide]", "values": [{"measurement": "effective (repellent effectiveness)", "setting": "[1]", "value": "≥ 95", "unit": "%"}, {"measurement": "duration of effectiveness", "setting": "[1]; 95%+ effective", "value": "over 4 hours"}, {"measurement": "duration of effectiveness", "setting": "[2]", "value": "10 to 12", "unit": "h"}, {"measurement": "effective (repellent effectiveness)", "setting": "biting-insect", "value": "60-75%"}]}
